Assay: Hydrolysis study of the silane by 1H NMR in D2O
Assay type: physicochemical
Method: Hydrolysis of the antimicrobial silanes to activate their surface bonding, an essential step in the coating process, were examined by ^1H NMR in D2O. In a typical experiment, approximately 10 mg of the trimethoxy-hydantoin containing silane was added to D2O and the first was acquired within 2 minutes of the addition. The evolution of methanol with time was measured by acquisition of subsequent incremental spectra on the same sample. Due to the limited solubility of these compounds in water, the amount of methanol hydrolysis product detected, in relation to an internal standard (residual H2O in D2O) was used.
Hydrolysis of the modified alkyloxysilanes is important for their reactivity and adhesion to surfaces. Knowing the rate of hydrolysis allows control over the mixing time and catalyst/acid content required before a coating will optimally bind to a substrate. To better understand the mechanisms of hydrolysis, a simple method of placing the silane in a solvent, such as D2O (deuterated water), and look for a characteristic methanol peak in NMR analysis, which will occur when the methanol is cleaved off by the hydrolysis from the D2O. […] After 2 minutes (the fastest the sample could be analyzed on NMR after mixing), a sharp, distinct methanol peak appears at 3.34 ppm (FIG. 4).

CO[Si](CCCn1cc(CN2C(=O)NC(C)(C)C2=O)nn1)(OC)OC [the silane]
solubility in D2O (approximately 10 mg in D2O): not completely soluble
integration value of methanol peak (3.34 ppm) compared with D2O set as 1 (in D2O, after 2 minutes): 0.24
time to plateau of methanol peak integration (in D2O, spectra recorded every 2 minutes): 10 min
time to nearly complete hydrolysis (in D2O, uncatalysed, methanol release by 1H NMR): less than 2 minutes
